Laboratory results as given in patent US10308631B2, “Selective anti-cancer compounds” (NATIONAL UNIVERSITY OF SINGAPORE, priority 2015, dated 2019).

What was measured:
[1] = tested on: oncogene-transformed BJ cells; test: Immunofluorescence of chromosome alignment, bipolar spindle and spindle poles; format: cell-based, human; conditions: 2.5 μM, 4 h, then MG132 1.5 h
Experimental: (§1) A: is a histogram showing isogenic non-transformed and oncogene-transformed BJ cells stably expressing GFP-tagged Histone H2B as a marker for chromosome segregation, treated with Compound 1 (a131) at 2.5 μM final concentration. Mitotic progression of these cells was monitored every 10 min. More than 100 cells per condition were quantified and classified into 3 groups: no, mild and severe mitotic defects with prolonged mitotic arrest, chromosome mis-segregation and failure in cytokinesis. […] The bars represent 5 μm in length. C: is a histogram showing quantification of defects in spindle formation and chromosome alignments (n>100 cells per condition).
(§2) To investigate why massive chromosome mis-segregation occurs in oncogene-transformed BJ cells when treated with Compound 1, but not in non-transformed BJ cells, the effects of Compound 1 were studied on isogenic BJ cell lines (transformed and non-transformed) that stably express GFP-Histone H2B. Cells cultured in accordance with Biology Example 3 were treated with Compound 1 at 2.5 μM final concentration for 4 h followed by MG132 for another 1.5 h to allow chromosome alignment. […]

[2] = tested on: non-transformed normal BJ cells; test: as above; format: cell-based, human; conditions: 2.5 μM, 4 h, then MG132 1.5 h
Experimental: as §1, §2

[3] = tested on: U2OS; test: MTT growth inhibition (GI50); format: cell-based; conditions: Homo sapiens, cancer (others), 72 h
Experimental: (§3) Having shown that Compound 1 and its derivatives are effective against HeLa cervical cancer cells and human fibroblast BJ cell lines, Compound 1 was then tested against a panel of thirty different human cancer cells lines derived from gastric, colon, liver, breast, lung and cervical tumours and five different human normal cell lines, which were normal fibroblast cell lines (BJ normal, IMR90, WI38) and retinal pigmented epithelium cell lines (ARPE-19, hTert-immortalized RPE-1).
(§4) The cell lines detailed in Table 2, below, were cultured in the media shown and treated with Compound 1 at a range of different concentrations (from 0.1 μM to 10 μM) for 72 h in triplicate and a mean concentration value for Compound 1 to achieve 50% growth inhibition (GI50) in each cell line was determined by use of the MTT assay.
(§5) The MTT assay was performed by adding thiazolyl blue tetrazolium bromide (MTT reagent, Invitrogen) at a concentration of 0.5 mg/mL to each cell culture and the resulting mixture incubated for 4 h at 37° C. The medium was then removed, and the blue dye remaining in each well was dissolved in DMSO by mixing with a microplate mixer. The absorbance of each well at 540 nm and 660 nm was measured using a microplate reader (Benchmark plus, BIO-RAD). The optical density (OD) values were calculated by subtracting the absorbance at 660 nm from the absorbance at 540 nm. Mean OD values from control cells containing only DMSO treated wells were set as 100%. The resulting GI50 values (in μM) are set out in Table 2 below.

[4] = tested on: HCT116; test: MTT growth inhibition (GI50); format: cell-based; conditions: Homo sapiens, HCT-116, HCT116, colon cancer, 72 h
Experimental: as §3, §4, §5

[5] = tested on: SCH; test: MTT growth inhibition (GI50); format: cell-based; conditions: Homo sapiens, gastric cancer, 72 h
Experimental: as §3, §4, §5

[6] = tested on: AZ521; test: MTT growth inhibition (GI50); format: cell-based; conditions: Homo sapiens, AZ-521, AZ521, gastric cancer, 72 h
Experimental: as §3, §4, §5

[7] = tested on: RPE-1/h-Tert; test: MTT growth inhibition (GI50); format: cell-based; conditions: Homo sapiens, normal cell line, 72 h
Experimental: as §3, §4, §5

[8] = tested on: HeLa; test: MTT growth inhibition (GI50); format: cell-based; conditions: Homo sapiens, cancer (others), 72 h
Experimental: as §3, §4, §5

[9] = tested on: NCC59; test: MTT growth inhibition (GI50); format: cell-based; conditions: Homo sapiens, NCC59, gastric cancer, 72 h
Experimental: as §3, §4, §5

[10] = tested on: MCF7; test: MTT growth inhibition (GI50); format: cell-based; conditions: Homo sapiens, MCF7, breast cancer, 72 h
Experimental: as §3, §4, §5

[11] = tested on: NCC24; test: MTT growth inhibition (GI50); format: cell-based; conditions: Homo sapiens, NCC24, gastric cancer, 72 h
Experimental: as §3, §4, §5

[12] = tested on: HGC27; test: MTT growth inhibition (GI50); format: cell-based; conditions: Homo sapiens, HGC-27, HGC27, gastric cancer, 72 h
Experimental: as §3, §4, §5

[13] = tested on: IMR90; test: MTT growth inhibition (GI50); format: cell-based; conditions: Homo sapiens, IMR-90, IMR90, normal cell line, 72 h
Experimental: as §3, §4, §5

[14] = tested on: WI38; test: MTT growth inhibition (GI50); format: cell-based; conditions: Homo sapiens, WI-38, WI38, normal cell line, 72 h
Experimental: as §3, §4, §5

[15] = tested on: Huh7; test: MTT growth inhibition (GI50); format: cell-based; conditions: Homo sapiens, Huh-7, Huh7, liver cancer, 72 h
Experimental: as §3, §4, §5

[16] = tested on: SGCC-GC38; test: MTT growth inhibition (GI50); format: cell-based; conditions: Homo sapiens, SGCC-GC38, gastric cancer, 72 h
Experimental: as §3, §4, §5

In the case of `N#C/C(=C\c1cccc2cnccc12)c1c[nH]c2ccccc12` [Compound 1, (Z)-2-(1H-indol-3-yl)-3-(isoquinolin-5-yl)acrylonitrile], the “chromosome alignment and spindle formation” value [1] is reported as “massively misaligned chromosomes with the formation of multipolar spindles”, the “chromosome alignment and spindle formation” value [2] is reported as “did not show marked defects in chromosome alignment” and the GI50 [3] is reported as 1500 nM. It also gave a GI50 [4] of 1800 nM, a GI50 [5] of 1700 nM and a GI50 [6] of 2400 nM. It also gave a GI50 [7] of 5200 nM, a GI50 [8] of 1400 nM and a GI50 [9] of 900 nM. The GI50 [10] was 1200 nM, the GI50 [11] was 1200 nM and the GI50 [12] was 1200 nM. For the same molecule, the GI50 [13] was 5800 nM, the GI50 [14] was 3400 nM and the GI50 [15] was 1200 nM. For the same molecule, the GI50 [16] was 1900 nM.
